# Test results: paper PMC9019904, “AD Informer Set: Chemical tools to facilitate Alzheimer's disease drug discovery” (Alzheimer's & Dementia : Translational Research & Clinical …, 2022)
# Key:
# [1] = test system: BV2 (mouse microglia) cell line; assay: pHrodo-myelin phagocytosis/cell viability high content imaging assay: phagocytosis signal; format: cell-based
# Outline: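 Mouse BV2 and human HMC3 microglia given pHrodo-myelin; phagocytosis and cell viability imaged together by high content imaging about 22 hours after myelin addition. Three measurements extracted, including intensity increase and decrease marking early and later apoptosis.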
# [2] = test system: BV2 (mouse microglia) cell line; assay: pHrodo-myelin phagocytosis/cell viability high content imaging assay: viability (cell count, nuclear area, nuclear intensity)
# Outline: (§1)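 Immortalized microglia are treated with compound (10 μM, single concentration) for 48 h, the final 20 h alongside pHrodo-myelin. Data are the mean of duplicates, reported as % of untreated control.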
# [3] = Kinetic solubility in aqueous buffer pH 7.4 by total chemiluminescent nitrogen determination (Analiza); conditions: aqueous buffer, pH 7.4, aqueous buffer, kinetic from dmso stock
# [4] = test system: HMC3 (human microglia) cell line; assay: pHrodo-myelin phagocytosis/cell viability high content imaging assay: viability (cell count, nuclear area, nuclear intensity); conditions: 10 μM, HMC3
# Outline: as §1
Structure (SMILES),solubility kinetic [3] [µM],"Stimulation of mouse microglial phagocytosis at 10 μM (>150% control) ([1]; 10 μM, BV2)",further results
Cc1cc(NC(=O)Nc2ccc(F)c(F)c2)n(-c2ccccc2)n1 [ML 297],49.9,Y (The compound was found to stimulate phagocytosis (response threshold: >150% control) when murine immortalized microglial cells were dosed at 10 μM (Y: yes)),
O=C(NNc1nc2cc(F)ccc2n2cccc12)c1cnccn1 [SC144],2.7,Y (The compound was found to stimulate phagocytosis (response threshold: >150% control) when murine immortalized microglial cells were dosed at 10 μM (Y: yes)),"Mouse microglial cytotoxicity at 10 μM (<70% control) ([2]; 10 μM, BV2): Y (The compound was found to be cytotoxic (cell count threshold: <70% control) when murine immortalized microglial cells were dosed at 10 μM (Y: yes))"
O=c1oc2ccccc2cc1-c1cn2cc(Cc3ccc(F)cc3)sc2n1 [iMDK],< 1.1,,"Mouse microglial cytotoxicity at 10 μM (<70% control) ([2]; 10 μM, BV2): Y (The compound was found to be cytotoxic (cell count threshold: <70% control) when murine immortalized microglial cells were dosed at 10 μM (Y: yes))"
Oc1cc(CNC(=S)/C=C/c2cc(O)c(O)c(Br)c2)cc(O)c1O [NT157],79.7,Y (The compound was found to stimulate phagocytosis (response threshold: >150% control) when murine immortalized microglial cells were dosed at 10 μM (Y: yes)),"Human microglial cytotoxicity at 10 μM (<70% control) [4]: Y (The compound was found to be cytotoxic (cell count threshold: <70% control) when human immortalized microglial cells were dosed at 10 μM (Y: yes)); Mouse microglial cytotoxicity at 10 μM (<70% control) ([2]; 10 μM, BV2): Y (The compound was found to be cytotoxic (cell count threshold: <70% control) when murine immortalized microglial cells were dosed at 10 μM (Y: yes))"
Cc1cnc(Nc2ccc(F)cc2Cl)nc1-c1c[nH]c(C(=O)N[C@H](CO)c2cccc(Cl)c2)c1 [Vertex 11e],1.4,,
COc1cc(N2CCC(N3CCN(C)CC3)CC2)ccc1Nc1ncc(Cl)c(Nc2ccccc2P(C)(C)=O)n1 [Brigatinib],123,,"Stimulation of mouse microglial phagocytosis at 10 μM (>150% control) ([1]; BV2, 10 μM): Y (The compound was found to stimulate phagocytosis (response threshold: >150% control) when murine immortalized microglial cells were dosed at 10 μM (Y: yes)); Mouse microglial cytotoxicity at 10 μM (<70% control) ([2]; BV2, 10 μM): Y (The compound was found to be cytotoxic (cell count threshold: <70% control) when murine immortalized microglial cells were dosed at 10 μM (Y: yes))"
Cc1ccc(-n2nc(C(C)(C)C)cc2NC(=O)Nc2ccc(OCCN3CCOCC3)c3ccccc23)cc1 [Doramapimod (BIRB 796)],3.6,Y (The compound was found to stimulate phagocytosis (response threshold: >150% control) when murine immortalized microglial cells were dosed at 10 μM (Y: yes)),
COc1cc(C(=O)NS(=O)(=O)c2ccccc2C)ccc1Cc1cn(C)c2ccc(NC(=O)OC3CCCC3)cc12 [Zafirlukast],129,,
CC1(C)CCC(CN2CCN(c3ccc(C(=O)NS(=O)(=O)c4ccc(NCC5CCOCC5)c([N+](=O)[O-])c4)c(Oc4cnc5[nH]ccc5c4)c3)CC2)=C(c2ccc(Cl)cc2)C1 [Venetoclax (ABT-199)],6.3,,"Stimulation of mouse microglial phagocytosis at 10 μM (>150% control) ([1]; BV2, 10 μM): Y (The compound was found to stimulate phagocytosis (response threshold: >150% control) when murine immortalized microglial cells were dosed at 10 μM (Y: yes))"
CC/C(=C(\c1ccc(O)cc1)c1ccc(OCCN(C)C)cc1)c1ccccc1 [Afimoxifene],19.5,,"Stimulation of mouse microglial phagocytosis at 10 μM (>150% control) ([1]; BV2, 10 μM): Y (The compound was found to stimulate phagocytosis (response threshold: >150% control) when murine immortalized microglial cells were dosed at 10 μM (Y: yes))"
O=C(NC1CC1)C(=O)C(Cc1ccccc1)NC(=O)[C@H]1CCC(=O)N1Cc1ccccc1 (stereo partly drawn) [ABT-957 (Alicapistat)],176,,
Cc1ccccc1C(=O)Nc1ccc(C(=O)N2CCCC(O)c3cc(Cl)ccc32)c(C)c1 (stereo not drawn) [Tolvaptan],31.8,,"Stimulation of mouse microglial phagocytosis at 10 μM (>150% control) ([1]; BV2, 10 μM): Y (The compound was found to stimulate phagocytosis (response threshold: >150% control) when murine immortalized microglial cells were dosed at 10 μM (Y: yes))"
O=c1[nH]c(=O)n([C@H]2C[C@H](O)[C@@H](CO)O2)cc1/C=C/Br [RP101 (Brivudine)],199,,
C=CC[C@@H]1/C=C(\C)C[C@H](C)C[C@H](OC)[C@H]2O[C@@](O)(C(=O)C(=O)N3CCCC[C@H]3C(=O)O[C@H](/C(C)=C/[C@@H]3CC[C@@H](O)[C@H](OC)C3)[C@H](C)[C@@H](O)CC1=O)[C@H](C)C[C@@H]2OC [Tacrolimus],95.5,Y (The compound was found to stimulate phagocytosis (response threshold: >150% control) when murine immortalized microglial cells were dosed at 10 μM (Y: yes)),"Mouse microglial cytotoxicity at 10 μM (<70% control) ([2]; 10 μM, BV2): Y (The compound was found to be cytotoxic (cell count threshold: <70% control) when murine immortalized microglial cells were dosed at 10 μM (Y: yes))"
Cc1cccc(-c2nn3c(c2-c2ccnc4ccc(C(N)=O)cc24)CCC3)n1 [Galunisertib],249,,"Stimulation of mouse microglial phagocytosis at 10 μM (>150% control) ([1]; BV2, 10 μM): Y (The compound was found to stimulate phagocytosis (response threshold: >150% control) when murine immortalized microglial cells were dosed at 10 μM (Y: yes))"
Cc1ccccc1NC(=O)CN1C(=O)N/C(=C/c2ccccc2OCc2ccc(C(=O)O)cc2)C1=O [CHEMBL1416302],26.6,,"Stimulation of mouse microglial phagocytosis at 10 μM (>150% control) ([1]; BV2 cells, 10 μM): Y (The compound was found to stimulate phagocytosis (response threshold: >150% control) when murine immortalized microglial cells were dosed at 10 μM (Y: yes))"

# The next lines start with results.
solubility kinetic [3] [µM],Structure (SMILES),"Stimulation of mouse microglial phagocytosis at 10 μM (>150% control) ([1]; 10 μM, BV2)",further results
24.3,Clc1ccc(N/N=C(\c2ccccc2)c2ccccn2)nc1 [JIB-04],Y (The compound was found to stimulate phagocytosis (response threshold: >150% control) when murine immortalized microglial cells were dosed at 10 μM (Y: yes)),"Mouse microglial cytotoxicity at 10 μM (<70% control) ([2]; 10 μM, BV2): Y (The compound was found to be cytotoxic (cell count threshold: <70% control) when murine immortalized microglial cells were dosed at 10 μM (Y: yes))"
150,COCCOCCOC(=O)N[C@@H](CC(C)C)C(=O)N[C@@H](Cc1ccccc1)C(=O)C(=O)NC1CC1 [SNJ-1945],,
119,CC(C)(O)c1coc(S(=O)(=O)NC(=O)Nc2c3c(cc4c2CCC4)CCC3)c1 [MCC950],,
4.6,CCn1c(=O)/c(=C2\Sc3ccccc3N2C)s/c1=C\c1ccccn1 [YM-08],,
14.3,N#Cc1ccc(COC[C@H]2O[C@@H](n3c(NCc4ccc(Cl)c(Cl)c4)nc4c(N)ncnc43)[C@H](O)[C@@H]2O)cc1 [VER-155008],Y (The compound was found to stimulate phagocytosis (response threshold: >150% control) when murine immortalized microglial cells were dosed at 10 μM (Y: yes)),"Mouse microglial cytotoxicity at 10 μM (<70% control) ([2]; 10 μM, BV2): Y (The compound was found to be cytotoxic (cell count threshold: <70% control) when murine immortalized microglial cells were dosed at 10 μM (Y: yes))"
270,O=C(O)c1cc2nc(-c3ccc(Cl)cc3)cc(C(F)(F)F)n2n1 [ZINC00184372],Y (The compound was found to stimulate phagocytosis (response threshold: >150% control) when murine immortalized microglial cells were dosed at 10 μM (Y: yes)),
126,CN1C[C@H](Nc2cnn(C)c(=O)c2Br)C[C@H](c2ccccc2)C1 [GSK4027],,
